# Measured values: patent US7524639B2, “Assay for screening antipsychotic drugs” (priority 2003, dated 2009)
# Read-outs that look alike come from different tables or passages of the source.
# What was measured:
# [1] = target: T1, rat 5-HT2A receptor tagged with EGFP (Rattus norvegicus, UniProt P14842); test: Internalization of GFP-tagged 5-HT2A receptor in SB1 cells (HEK293 stable line), confocal fluorescence microscopy; assay type: cell-based; conditions: drug applied for 10 mins, cycloheximide present
# T1 construct: tagged at the C-terminus of the full-length rat 5-HT2A receptor (SR2-GFP); expressed in transfected cells; transiently transfected, differentiated N1E-115 cells (A2)
# Procedure: Generation of SR2-GFP receptor and HEK293 cells stably expressing SR2-GFP receptors: Enhanced green fluorescence protein (EGFP) had been tagged at the C-terminus of the full-length rat 5-HT2A receptor (SR2-GFP) and a stable line, SB-1, expressing fluorescent SR2-GFP receptors was established in the HEK293 cell line.
# In order to study internalization of the 5-HT2A receptor in SB1 cells, cells were plated onto poly-DL-ornithine (20 μg/ml)—coated coverslip dishes and grown to 60-70% confluency. After 24 hrs in culture, cells were washed twice with serum free-DMEM to remove endogenous 5-HT present in serum. Protein synthesis was then blocked with cycloheximide at 100 μg/ml for 5 hrs to eliminate fluorescence from receptors being synthesized and present in the Golgi. […] Antipsychotics or an agonist such as serotonin (i.e. positive control) at the desired concentrations in DMEM were then applied for 10 mins. At the end of this period, cells were fixed in 4% paraformaldehyde in phosphate buffered saline (PBS) for 30 min, washed with PBS and imaged using a confocal microscope as described below.
# [2] = values from Goodman & Gilman's (Baldessarini and Tarazi 2001) or other published medical sources, cited from earlier work
# [3] = target: T1, rat 5-HT2A receptor tagged with EGFP; test: Internalization of GFP-tagged 5-HT2A receptor in transiently transfected, differentiated N1E-115 neuronal cells, confocal fluorescence microscopy; assay type: cell-based; conditions: drug applied for 10 mins, cycloheximide present
# Source text: A laser-scanning confocal microscope (Model MRC1024—BioRad) attached to a Nikon inverted microscope (Nikon eclipse TE300) and Lasersharp acquisition software were used in this case. A 60× oil immersion objective (NA=1.4) and 20× objective (NA=0.75) were used with laser power at 30% in all studies. […] Images were processed with Adobe Photoshop software using identical values for contrast and brightness. Typically 100-150 cells were randomly chosen and imaged in any one experiment and all experiments were repeated at least three times. In all experiments, cycloheximide was present until the cells were fixed. The number of cells that show internalized fluorescence and the pattern of fluoresence were estimated.
# To study internalization of the 5-HT2A receptor in N1E-115 cells, undifferentiated N1E-115 cells grown on cover slip dishes cells were plated onto poly-DL-ornithine (20 μg/ml)—coated coverslip dishes and grown to 60-70% confluency. These cells were transfected with 2 μg of the SR2-GFP DNA mixed with 10 μg of lipofectamine in 1 ml OptiMEM media. 24 hrs after transfection, differentiation medium (1% DMSO+1% FBS+1% AB-AM mix in DMEM) was added in place of 10% DMEM. After 3 days, differentiated cells formed long neurites.
# T1 sequence (P14842 whole entry): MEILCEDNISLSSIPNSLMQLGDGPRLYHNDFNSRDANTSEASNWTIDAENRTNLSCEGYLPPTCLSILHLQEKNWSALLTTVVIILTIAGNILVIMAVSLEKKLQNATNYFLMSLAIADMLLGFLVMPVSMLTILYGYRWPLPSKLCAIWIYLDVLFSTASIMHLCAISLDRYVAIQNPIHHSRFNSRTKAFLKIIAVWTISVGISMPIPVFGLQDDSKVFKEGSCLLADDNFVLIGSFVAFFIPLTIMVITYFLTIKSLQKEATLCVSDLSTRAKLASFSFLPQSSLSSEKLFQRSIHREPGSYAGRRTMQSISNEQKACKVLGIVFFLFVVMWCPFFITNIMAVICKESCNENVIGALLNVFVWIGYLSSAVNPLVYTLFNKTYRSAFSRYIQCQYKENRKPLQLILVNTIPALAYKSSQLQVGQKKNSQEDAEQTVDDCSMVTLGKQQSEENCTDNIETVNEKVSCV
Compound,Receptor internalization SB1 cells (pattern of internalization) [1],Extrapyramidal side effects (EPS) [2],Receptor internalization N1E-115 cells (pattern of internalization) [3],other results
OCCN1CCN(CC/C=C2/c3ccccc3Sc3ccc(Cl)cc32)CC1 [Zuclopenthixol],Type C,Moderate,Type B,–
O=C(CCCN1CCC(O)(c2ccc(Cl)cc2)CC1)c1ccc(F)cc1 [Haloperidol],–,Very high,–,Extrapyramidal side effects (EPS) ([2]; listed as haloperidol): severe
OCCOCCN1CCN(C2=Nc3ccccc3Sc3ccccc32)CC1 [Quitapine],–,Very low,–,–
O=C1CCc2ccc(OCCCCN3CCN(c4cccc(Cl)c4Cl)CC3)cc2N1 [Aripiprazole],Type A,Very low,Type A,–
O=C1Cc2cc(CCN3CCN(c4nsc5ccccc45)CC3)c(Cl)cc2N1 [Ziprasidone],Type B,Moderate,Type B,–
CN1CCN(C2=Nc3ccccc3Oc3ccc(Cl)cc32)CC1 [Loxapine],–,Moderate,–,–
Cc1nc2n(c(=O)c1CCN1CCC(c3noc4cc(F)ccc34)CC1)CCCC2 [Risperidone],–,Moderate,–,–
CN1CCN(C2=Nc3cc(Cl)ccc3Nc3ccccc32)CC1 [Clozapine],–,Very low,–,Extrapyramidal side effects (EPS) ([2]; listed as clozapine): negligible
Cc1cc2c(s1)Nc1ccccc1N=C2N1CCN(C)CC1 [Olanzapine],–,Very low,–,Extrapyramidal side effects (EPS) ([2]; listed as olanzapine): negligible
OCCN1CCN(CCCN2c3ccccc3Sc3ccc(C(F)(F)F)cc32)CC1 [Fluphenazine],–,Very high,–,Extrapyramidal side effects (EPS) ([2]; listed as fluphenazine): severe
